In patent US20030185853A1, “Arteriosclerosis-preventing material, immune-activating material, vertebrate that has eaten such materials, and eggs thereof” (Nichimo Co., Ltd., priority 1999, published 2003):

Tests used:
[1] = system: Smooth muscle cells (SMC) derived from the aortic tunica media of stroke-prone spontaneously hypertensive rats (SHRSP); experiment: Study 2 on arteriosclerosis capability: propagation of smooth muscle cells of the tunica media; format: cell-based; settings: 0.1 to 30 μmol/liter, five days; for smooth muscle cell propagating capability, number of cells (Determination A, FIG. 5): 10% FBS; for smooth muscle cell propagating capability, number of cells (Determination B, FIG. 6): with 20 ng/ml PDGF
Protocol: The object of the study is to investigate the effect of the above-described concentrated material of the present invention in terms of preventing propagation of smooth muscle cells of the tunica media of the blood vessels, which is one factor in arteriosclerosis.
1) Smooth muscle cells (SMC) derived from the aortic tunica media of stroke-prone spontaneously hypertensive rats (SHRSP) were prepared by the explant method, and five generations were cultivated.
2) After inoculating 10,000 well SMC in a 24-well plate, the cells were rinsed in the subconfluent state with DMEM medium containing 10% FBS at 37° C. and in the presence of 5% CO2. [The medium] was replaced with DMEM medium containing 0.4% albumin (phenol red-free) and cultivated for 48 hours.
3) Genistein (referred to hereafter as Gen), daidzein (referred to hereafter as Dai), glycitein (referred to hereafter as Gly), and the concentrated material of the present invention were each added to DMEM culture medium (phenol red-free) containing 10% FBS (charcoal-treated) to a concentration of 0.1 to 30 μmol/liter and cultivated for five days. Then, the number of cells was determined with a Coulter counter (referred to hereafter as Determination A).
4) The number of cells was determined by adding 20 ng/ml PDGF in accordance with the method 3) described above (referred to as Determination B).

chicks = experiment: Study 1 on immune-activating capability: number of deaths during rearing of chicks; format: in vivo; settings: administered to comparison group after three weeks
Protocol: The object of the study is to investigate the immune-activating capability based on the number of deaths during rearing of chicks.
6,200 young chicks immediately after hatching were grouped into a comparison group and a study group each. The comparison group was provided conventional feed to which Bacillus subtilus (0.1 wt %) was added, and the study group was provided conventional feed to which the product (0.1 wt %) of propagation of lactic acid bacteria (Enterococcus faesium) as useful microorganisms in pulse crops of the present invention was added, and the number of deaths of chicks at one week, two weeks, three weeks, and four weeks of age was compared.

O=c1c(-c2ccc(O)cc2)coc2cc(O)cc(O)c12 [Gen, Genistein]
smooth muscle cell propagating capability, number of cells (Determination A, FIG. 5) [1]: cell-reducing effect
smooth muscle cell propagating capability, number of cells (Determination B, FIG. 6) [1]: cell-reducing effect

CC1(C)S[C@@H]2[C@H](NC(=O)[C@H](N)c3ccccc3)C(=O)N2[C@H]1C(=O)O [ampicillin]
increase in deaths of chicks after antibiotic administration (chicks): an increase in deaths could not be prevented

O=c1c(-c2ccc(O)cc2)coc2cc(O)ccc12 [Dai, daidzein]
smooth muscle cell propagating capability, number of cells (Determination A, FIG. 5) [1]: cell-reducing effect
smooth muscle cell propagating capability, number of cells (Determination B, FIG. 6) [1]: cell-reducing effect
